Earlier results on four molecules are cited in patent publication US20220160728A1, “GENE THERAPY METHODS” (Homology Medicines, Inc., priority 2020, published 2022).

The conditions of the data set: corticosteroid equivalency conversion values (prednisolone equivalents).
Take `CC(=O)OCC(=O)[C@@]1(O)CC[C@H]2[C@@H]3CCC4=CC(=O)CC[C@]4(C)[C@H]3C(=O)C[C@@]21C` [Cortisone acetate]: the Equivalent dose is recorded as 25 mg.
As for `C[C@]12CCC(=O)C=C1CC[C@@H]1[C@@H]2[C@@H](O)C[C@@]2(C)[C@H]1CC[C@]2(O)C(=O)CO` [Hydrocortisone (cortisol), Hydrocortisone], the Equivalent dose is 20 mg.
Regarding `C[C@]12C=CC(=O)C=C1CC[C@@H]1[C@@H]2[C@@H](O)C[C@@]2(C)[C@H]1CC[C@]2(O)C(=O)CO` [Prednisolone], the Equivalent dose is on record as 5 mg.
Turning to `C[C@]12C=CC(=O)C=C1CC[C@H]1[C@@H]3C[C@@H](O)[C@](O)(C(=O)CO)[C@@]3(C)C[C@H](O)[C@@]12F` [Triamcinolone], the Equivalent dose is listed as 4 mg.
